In patent US7358076B2, “Sublancin lantibiotic produced by Bacillus subtilis 168” (The University of Maryland, priority 1997, dated 2008):

Assays:
B. cereus T spores [1] = assay: halo assay on agar plates sprayed with spores, extended incubation; assay type: cell-based, Bacillus cereus; conditions: lawns from sprayed B. cereus T spores, incubation for several days, data not shown
Experimental: Two methods were employed to assay the activity of sublancin 168; a halo assay on plates, and a liquid assay in culture tubes. Both methods used Bacillus cereus T spores as the test organism. 250 mg of spores, prepared as previously described (12), were suspended in 30 mL of distilled water with a glass homogenizer, heat-shocked at 65° C. for 2 hr, centrifuged, and resuspended in 50% ethanol. This suspension was sprayed onto the surface of Medium A-containing agar plates using a Sigma spray unit (St. Louis Mo.). Prior to spraying, 10-20 μL volumes of serial dilutions of purified sublancin were spotted onto the plate. […] growth of the spores, and the diameters of the halos caused by sublancin inhibition were measured, and the minimum amount of peptide that was required to give an observable halo was noted. For the liquid assay, heat-shocked spores were suspended in sterile water to a final concentration of 2 mg/mL, and then added to culture tubes containing 1% BACTO®-tryptone, 0.1 M TRIS®-Pi, pH 6.8. Prior to adding the spores, serial dilutions of sublancin were added to the tubes. The final concentration of spores was 0.1 mg/mL. The tubes were incubated at 37° C. for 3 hr, using sufficient shaking to keep the spores well suspended. […]
The ability of sublancin to inhibit bacterial spore outgrowth was also determined. […]

B. cereus T spores [2] = conditions: cited from earlier work
B. cereus T spores [3] = conditions: from reference (30); cited from earlier work

Structure (SMILES): C=C1NC(=O)CC[C@@H](C(=O)O)NC(=O)[C@H](NC(=O)[C@H](CCCCN)NC(=O)[C@@H](N)Cc2c[nH]c3ccccc23)CSC[C@@H](C(=O)N[C@@H]2C(=O)N3CCC[C@H]3C(=O)NCC(=O)N[C@H](C(=O)N[C@H](C(=O)N[C@@H]3C(=O)NCC(=O)N[C@@H](C)C(=O)N[C@@H](CC(C)C)C(=O)N[C@@H](CCC(N)=O)C(=O)N/C(=C/C)C(=O)N[C@H](C(=O)N[C@@H](Cc4ccccc4)C(=O)N[C@@H](CC(C)C)C(=O)N[C@@H](CCC(N)=O)C(=O)N[C@@H]4C(=O)N[C@@H](CC(C)C)C(=O)N[C@H]5C(=O)N[C@@H](CSC4C)C(=O)NC(=O)[C@H](CC(N)=O)N[C@H](C(=O)N[C@@H](CCCCN)C(=O)N[C@H](C(=O)NC(=C)C(=O)N[C@@H](CCCCN)C(=O)O)[C@@H](C)CC)CSC5C)CSC3C)C(C)C)CSC2C)N[C@@H](CC(C)C)C(=O)NC1=O (stereo partly shown) [subtilin]
- appearance of halos after extended incubation of the plates (B. cereus T spores [1]): remained completely clear
- concentration required to inhibit outgrowth of these same spores (B. cereus T spores [2]; B. cereus T spores, from references (27,29)): 80 nM
- corresponding ratio, spore outgrowth inhibition versus inhibition of exponentially growing cells (B. cereus T spores [2]; comparison value for subtilin, same methods as reference (27)): 30 fold
- binding and inhibition of spores, reversibility (B. cereus T spores [3]): irreversibly
